Measurements reported in ChEMBL document CHEMBL4196088, “Induction of cell killing and autophagy by amphiphilic pyrrolidine derivatives on human pancreatic cancer cells” (Eur J Med Chem, 2018).

test system: PANC-1; experiment: Induction of apoptosis in human PANC1 cells assessed as accumulation at sub-G0/G1 phase at 10 uM after 48 hrs by propidium iodide staining based flow cytometry (reference value: 0.2 to 2.9%); type: functional; details: not given

Question: Which Activity does the source give for O[C@H]1[C@@H](O)CN[C@@H]1COCCCCCCCC/C=C/c1ccc(Oc2ccccc2)cc1 here?
Answer: The Activity was 3.8%.

test system: PK9; experiment: Induction of apoptosis in human PK9 cells assessed as accumulation at sub-G0/G1 phase at 10 uM after 24 hrs by propidium iodide staining based flow cytometry (reference value: 2.2%); type: functional; details: not given

Question: With O[C@H]1[C@@H](O)CN[C@@H]1COCCCCCCCC/C=C/c1ccc(Oc2ccccc2)cc1 as the molecule, how does the Activity read?
Answer: The Activity was 3.4%.

test system: BXPC-3; experiment: Induction of apoptosis in human BxPC3 cells assessed as accumulation at sub-G0/G1 phase harboring pSFFV-Bcl-XL at 20 uM after 48 hrs by propidium iodide staining based flow cytometry (reference value: 1.3%); type: functional; details: not given

Question: For O[C@H]1[C@@H](O)CN[C@@H]1COCCCCCCCC/C=C/c1ccc(Oc2ccccc2)cc1, which Activity is on record?
Answer: Its Activity is 4.5%.

test system: PANC-1; experiment: Induction of apoptosis in human PANC1 cells assessed as accumulation at sub-G0/G1 phase at 20 uM after 72 hrs by propidium iodide staining based flow cytometry (reference value: 1.6 to 3.2%); type: functional; details: not given

Question: With O[C@H]1[C@@H](O)CN[C@@H]1COCCCCCCCC/C=C/c1ccc(Oc2ccccc2)cc1 as the molecule, how does the Activity read?
Answer: Its Activity is 29.3%.

test system: not listed separately; experiment: Induction of apoptosis in HPNE cells assessed as accumulation at sub-G0/G1 phase at 10 uM after 24 hrs by propidium iodide staining based flow cytometry (reference value: 0.6%); type: cell-based; details: human

Question: With O[C@H]1[C@@H](O)CN[C@@H]1COCCCCCCCC/C=C/c1ccc(Oc2ccccc2)cc1 as the molecule, how does the Activity read?
Answer: The Activity was 6.5%.

test system: BXPC-3; experiment: Induction of apoptosis in human BxPC3 cells assessed as accumulation at sub-G0/G1 phase harboring pSFFV-Bcl-XL at 20 uM after 24 hrs by propidium iodide staining based flow cytometry (reference value: 1.2%); type: functional; details: not given

Question: Which Activity does the source give for O[C@H]1[C@@H](O)CN[C@@H]1COCCCCCCCC/C=C/c1ccc(Oc2ccccc2)cc1 here?
Answer: Its Activity is 4.4%.

test system: PK9; experiment: Induction of apoptosis in human PK9 cells assessed as accumulation at sub-G0/G1 phase at 20 uM after 72 hrs by propidium iodide staining based flow cytometry (reference value: 4%); type: functional; details: not given

Question: With O[C@H]1[C@@H](O)CN[C@@H]1COCCCCCCCC/C=C/c1ccc(Oc2ccccc2)cc1 as the molecule, how does the Activity read?
Answer: The Activity was 6.2%.

test system: not listed separately; experiment: Induction of apoptosis in HPNE cells assessed as accumulation at sub-G0/G1 phase at 10 uM after 48 hrs by propidium iodide staining based flow cytometry (reference value: 0.7%); type: cell-based; details: human

Question: With O[C@H]1[C@@H](O)CN[C@@H]1COCCCCCCCC/C=C/c1ccc(Oc2ccccc2)cc1 as the molecule, how does the Activity read?
Answer: Its Activity is 6.8%.

test system: PANC-1; experiment: Induction of apoptosis in human PANC1 cells assessed as accumulation at sub-G0/G1 phase at 20 uM after 48 hrs by propidium iodide staining based flow cytometry (reference value: 0.2 to 2.9%); type: functional; details: not given

Question: For O[C@H]1[C@@H](O)CN[C@@H]1COCCCCCCCC/C=C/c1ccc(Oc2ccccc2)cc1, which Activity is on record?
Answer: The Activity was 33.1%.

test system: BXPC-3; experiment: Induction of apoptosis in human BxPC3 cells assessed as accumulation at sub-G0/G1 phase at 20 uM after 72 hrs by propidium iodide staining based flow cytometry (reference value: 3.4%); type: functional; details: not given

Question: With O[C@H]1[C@@H](O)CN[C@@H]1COCCCCCCCC/C=C/c1ccc(Oc2ccccc2)cc1 as the molecule, how does the Activity read?
Answer: Its Activity is 20.3%.

test system: BXPC-3; experiment: Induction of apoptosis in human BxPC3 cells assessed as accumulation at sub-G0/G1 phase at 20 uM after 48 hrs by propidium iodide staining based flow cytometry (reference value: 2.8%); type: functional; details: not given

Question: For O[C@H]1[C@@H](O)CN[C@@H]1COCCCCCCCC/C=C/c1ccc(Oc2ccccc2)cc1, which Activity is on record?
Answer: Its Activity is 16.2%.

test system: PK9; experiment: Induction of apoptosis in human PK9 cells assessed as accumulation at sub-G0/G1 phase at 20 uM after 24 hrs by propidium iodide staining based flow cytometry (reference value: 2.2%); type: functional; details: not given

Question: For O[C@H]1[C@@H](O)CN[C@@H]1COCCCCCCCC/C=C/c1ccc(Oc2ccccc2)cc1, which Activity is on record?
Answer: Its Activity is 4.6%.

test system: not listed separately; experiment: Induction of apoptosis in HPNE cells assessed as accumulation at sub-G0/G1 phase at 20 uM after 72 hrs by propidium iodide staining based flow cytometry (reference value: 6.6%); type: cell-based; details: human

Question: With O[C@H]1[C@@H](O)CN[C@@H]1COCCCCCCCC/C=C/c1ccc(Oc2ccccc2)cc1 as the molecule, how does the Activity read?
Answer: The Activity was 85.8%.

test system: SK-BR-3; experiment: Growth inhibition of human SKBR3 cells after 72 hrs; type: functional, cell-based; details: SK-BR-3, 72 h

Question: For O[C@H]1[C@@H](O)CN[C@@H]1COCCCCCCCC/C=C/c1ccc(Oc2ccccc2)cc1, which IC50 is on record?
Answer: The IC50 was 15 µM.

test system: BXPC-3; experiment: Induction of apoptosis in human BxPC3 cells assessed as accumulation at sub-G0/G1 phase harboring pSFFV-Bcl-XL at 20 uM after 72 hrs by propidium iodide staining based flow cytometry (reference value: 1.3%); type: functional; details: not given

Question: With O[C@H]1[C@@H](O)CN[C@@H]1COCCCCCCCC/C=C/c1ccc(Oc2ccccc2)cc1 as the molecule, how does the Activity read?
Answer: The Activity was 4.3%.

test system: BXPC-3; experiment: Induction of apoptosis in human BxPC3 cells harboring pSFFV-Bcl-XL assessed as accumulation at sub-G0/G1 phase at 10 uM after 72 hrs by propidium iodide staining based flow cytometry (reference value: 2%); type: functional; details: not given

Question: Which Activity does the source give for O[C@H]1[C@@H](O)CN[C@@H]1COCCCCCCCC/C=C/c1ccc(Oc2ccccc2)cc1 here?
Answer: The Activity was 4.8%.

test system: BXPC-3; experiment: Induction of apoptosis in human BxPC3 cells assessed as accumulation at sub-G0/G1 phase at 10 uM after 48 hrs by propidium iodide staining based flow cytometry (reference value: 2.8%); type: functional; details: not given

Question: For O[C@H]1[C@@H](O)CN[C@@H]1COCCCCCCCC/C=C/c1ccc(Oc2ccccc2)cc1, which Activity is on record?
Answer: Its Activity is 6.6%.

test system: BXPC-3; experiment: Induction of apoptosis in human BxPC3 cells harboring pSFFV-Bcl-XL assessed as accumulation at sub-G0/G1 phase at 10 uM after 48 hrs by propidium iodide staining based flow cytometry (reference value: 1.9%); type: functional; details: not given

Question: Which Activity does the source give for O[C@H]1[C@@H](O)CN[C@@H]1COCCCCCCCC/C=C/c1ccc(Oc2ccccc2)cc1 here?
Answer: The Activity was 4.8%.

test system: not listed separately; experiment: Induction of apoptosis in HPNE cells assessed as accumulation at sub-G0/G1 phase at 20 uM after 24 hrs by propidium iodide staining based flow cytometry (reference value: 0.6%); type: cell-based; details: human

Question: Which Activity does the source give for O[C@H]1[C@@H](O)CN[C@@H]1COCCCCCCCC/C=C/c1ccc(Oc2ccccc2)cc1 here?
Answer: Its Activity is 79.1%.

test system: BXPC-3; experiment: Induction of apoptosis in human BxPC3 cells assessed as accumulation at sub-G0/G1 phase at 10 uM after 72 hrs by propidium iodide staining based flow cytometry (reference value: 3.4%); type: functional; details: not given

Question: For O[C@H]1[C@@H](O)CN[C@@H]1COCCCCCCCC/C=C/c1ccc(Oc2ccccc2)cc1, which Activity is on record?
Answer: Its Activity is 8.3%.

test system: PK9; experiment: Induction of apoptosis in human PK9 cells assessed as accumulation at sub-G0/G1 phase at 10 uM after 48 hrs by propidium iodide staining based flow cytometry (reference value: 3.8%); type: functional; details: not given

Question: For O[C@H]1[C@@H](O)CN[C@@H]1COCCCCCCCC/C=C/c1ccc(Oc2ccccc2)cc1, which Activity is on record?
Answer: Its Activity is 4.4%.

test system: PANC-1; experiment: Induction of apoptosis in human PANC1 cells assessed as accumulation at sub-G0/G1 phase at 10 uM after 24 hrs by propidium iodide staining based flow cytometry (reference value: 0.6 to 0.7%); type: functional; details: not given

Question: Which Activity does the source give for O[C@H]1[C@@H](O)CN[C@@H]1COCCCCCCCC/C=C/c1ccc(Oc2ccccc2)cc1 here?
Answer: The Activity was 3.1%.

test system: BXPC-3; experiment: Induction of apoptosis in human BxPC3 cells assessed as accumulation at sub-G0/G1 phase at 20 uM after 24 hrs by propidium iodide staining based flow cytometry (reference value: 2.3%); type: functional; details: not given

Question: Which Activity does the source give for O[C@H]1[C@@H](O)CN[C@@H]1COCCCCCCCC/C=C/c1ccc(Oc2ccccc2)cc1 here?
Answer: Its Activity is 8.7%.

test system: BXPC-3; experiment: Induction of apoptosis in human BxPC3 cells harboring pSFFV-Bcl-XL assessed as accumulation at sub-G0/G1 phase at 10 uM after 24 hrs by propidium iodide staining based flow cytometry (reference value: 1.5%); type: functional; details: not given

Question: For O[C@H]1[C@@H](O)CN[C@@H]1COCCCCCCCC/C=C/c1ccc(Oc2ccccc2)cc1, which Activity is on record?
Answer: Its Activity is 3.6%.

test system: PK9; experiment: Induction of apoptosis in human PK9 cells assessed as accumulation at sub-G0/G1 phase at 20 uM after 48 hrs by propidium iodide staining based flow cytometry (reference value: 3.8%); type: functional; details: not given

Question: With O[C@H]1[C@@H](O)CN[C@@H]1COCCCCCCCC/C=C/c1ccc(Oc2ccccc2)cc1 as the molecule, how does the Activity read?
Answer: The Activity was 5.2%.

test system: not listed separately; experiment: Induction of apoptosis in HPNE cells assessed as accumulation at sub-G0/G1 phase at 10 uM after 72 hrs by propidium iodide staining based flow cytometry (reference value: 6.6%); type: cell-based; details: human

Question: For O[C@H]1[C@@H](O)CN[C@@H]1COCCCCCCCC/C=C/c1ccc(Oc2ccccc2)cc1, which Activity is on record?
Answer: Its Activity is 7.9%.

test system: PANC-1; experiment: Induction of apoptosis in human PANC1 cells assessed as accumulation at sub-G0/G1 phase at 20 uM after 24 hrs by propidium iodide staining based flow cytometry (reference value: 0.6 to 0.7%); type: functional; details: not given

Question: Which Activity does the source give for O[C@H]1[C@@H](O)CN[C@@H]1COCCCCCCCC/C=C/c1ccc(Oc2ccccc2)cc1 here?
Answer: Its Activity is 9.9%.

test system: not listed separately; experiment: Induction of apoptosis in HPNE cells assessed as accumulation at sub-G0/G1 phase at 20 uM after 48 hrs by propidium iodide staining based flow cytometry (reference value: 0.7%); type: cell-based; details: human

Question: Which Activity does the source give for O[C@H]1[C@@H](O)CN[C@@H]1COCCCCCCCC/C=C/c1ccc(Oc2ccccc2)cc1 here?
Answer: The Activity was 81.4%.

test system: PANC-1; experiment: Induction of apoptosis in human PANC1 cells assessed as accumulation at sub-G0/G1 phase at 10 uM after 72 hrs by propidium iodide staining based flow cytometry (reference value: 1.6 to 3.2%); type: functional; details: not given

Question: With O[C@H]1[C@@H](O)CN[C@@H]1COCCCCCCCC/C=C/c1ccc(Oc2ccccc2)cc1 as the molecule, how does the Activity read?
Answer: The Activity was 4.4%.

test system: PK9; experiment: Induction of apoptosis in human PK9 cells assessed as accumulation at sub-G0/G1 phase at 10 uM after 72 hrs by propidium iodide staining based flow cytometry (reference value: 4%); type: functional; details: not given

Question: Which Activity does the source give for O[C@H]1[C@@H](O)CN[C@@H]1COCCCCCCCC/C=C/c1ccc(Oc2ccccc2)cc1 here?
Answer: The Activity was 3.1%.

test system: BXPC-3; experiment: Induction of apoptosis in human BxPC3 cells assessed as accumulation at sub-G0/G1 phase at 10 uM after 24 hrs by propidium iodide staining based flow cytometry (reference value: 1.8%); type: functional; details: not given

Question: With O[C@H]1[C@@H](O)CN[C@@H]1COCCCCCCCC/C=C/c1ccc(Oc2ccccc2)cc1 as the molecule, how does the Activity read?
Answer: Its Activity is 3.9%.
